# Measured values taken from publication PMC10799935, “Discovery of a peripheral 5HT2A antagonist as a clinical candidate for metabolic dysfunction-associated steatohepatitis” (Nature Communications, 2024).
# “Also recorded” adds a separate entry of the source. Read-outs that look alike come from different tables or passages of the source.
# Key:
# 5HT2C (h) = 5HT2C (h) (Homo sapiens, UniProt P28335); assay: 5HT subtype antagonism assay (Eurofins Cerep): 5HT2C; assay type: cell-based
# [1] = Hepatocyte stability test, dog; assay type: in vitro ADME; settings: male, beagle, cryopreserved hepatocytes, pH 7.4, read-out: Hepatocyte stability (% remaining after 3 h)
# Procedure: Hepatocyte incubations for the test compound (10 μM final concentration, n = 2 per each time point) were carried out in mouse, rat, dog, monkey and human cryopreserved hepatocytes, resuspended at a density of 0.5 million cells/ml of modified Krebs-Henseleit buffer (KHB). The information regarding the hepatocytes used in the experiment is as follows: liverPool® 10-donor mixed gender human (BioIVT, Cat.No. X008001, lot EAV), male cynomolgus monkey (BioIVT, Cat.No. M00305, lot COJ), male Beagle dog (BioIVT, Cat.No. M00205, lot USY), male Sprague Dawley rat (BioIVT, Cat.No. M00005, lot TQE) and male CD1 mouse (BioIVT, Cat.No.005052, lot LFF). In addition, the compound was also incubated with blank KHB. The final concentration of solvent (DMSO) was 0.1% of the final volume. The incubations were performed for 3 hours at 37°C and pH 7.4. Reactions were terminated at 0 and 180 minutes by the addition of 3 volumes of stop solution (acetonitrile/methanol (2:1, v/v) containing internal standard–diclofenac at 100 ng/ml). Samples (compound spiked buffer and compound spiked hepatocytes, as well as blank samples, i.e. hepatocytes with the same DMSO%) were then centrifuged and aliquots were transferred to 96-deep micronic tubes and frozen at -80 °C until LC-MS/MS analysis. […]
# STZ+HFD mice = STZ+HFD mice (modified STAM) NASH and liver fibrosis model; assay type: in vivo, mouse
# Procedure: Mice were intraperitoneally injected with low-dose streptozotocin (40 mg/kg; 5 times) in 7-week-old mice. After injection with STZ, mice were fed an HFD for 16 weeks to induce NASH and liver fibrosis. After 16 weeks of an HFD, mice were fed a standard chow diet to mimic the NASH patient under […]
# nine weeks by oral gavage (Reviewer-only data 4). […]
# inflammation, hepatocyte ballooning, and total NAFLD activity score by the NASH CRN histological scoring system (Reviewer-only data 4B, C). […]
# hepatic fibrosis stage similar to STZ+HFD mice treated with OCA (Reveiwer-only data 4D, E). STZ+HFD mice […]
# function (Reviwer-only data 4F). […]
# group (Reviewer-only data 4G). Furthermore, the expression of genes related to lipogenesis and fibrosis was reduced in the compound 11c-treated group in a dose-dependent manner (Reviewer-only data 4H, I). These […]
# Reviewer-only Data 4. Compound 11c treatment with dietary modification ameliorates NASH and liver fibrosis in a dose-dependent manner. (A) Experimental scheme for in vivo efficacy of compound 11c in […]
# (STZ+HFD mice. (B-I) STZ+HFD mice fed HFD for 16 weeks were switched to SCD for 9 weeks and were treated with vehicle, compound 11c, or OCA by daily oral gavage. (B) Representative liver histology by H&E staining […]
# mg/kg. Scale bars, 100µm. […]
# mice; n = 9 per group. (D) Representative liver histology by Masson’s trichrome staining from vehicle, […]
# Scale bars, 100µm. (E) Fibrosis stage
# (F) Serum AST and ALT levels; n = 9 per […]
# group. (G) Serum TG levels and hepatic TG levels; n = 9 per group. (H) Relative mRNA expression of lipogenesis-related genes as assessed by qRT-PCR in the liver; n = 9 per group. (I) Relative mRNA expression of fibrosis-related genes as assessed by qRT-PCR in the liver; n = 9 per group. Data are expressed as the means ±SEM.
# […], **P<0.01, one-way ANOVA with post hoc Tukey’s test (C, E, F, G, H, I). […]
# Representative liver histology by Masson’s trichrome staining and Sirius Red staining. Scale bars, 100µm. (E) […]
# one-way ANOVA with post hoc Tukey’s test (C, E).
# Comment 2: In "Methods", the author claims to use HEK293 cells (a type of cell derived from kidney embryos) for cell research, however, the data in Table 5 are the results of hepatocyte experiments. What happened? Response: We appreciate the Reviewer’s comment. HEK293 cells were used for inhibition assay (cell research), shown in Table 1-3 of the main manuscript, while, hepatic cell lines were used for chemical profiling and for “Hepatocyte stability” test, shown in Table 5 of the main manuscript. The “Selectivity” of Compound 11c for different 5HT subtypes is elucidated in response to Comment 6.
# We have modified the Methods section to provide clarity.
# [2] = male SD rats, oral [^14C]-11c 5 mg/kg
# in vitro = settings: African green monkey
# Chain of 5HT2C (h) (P28335 33-458): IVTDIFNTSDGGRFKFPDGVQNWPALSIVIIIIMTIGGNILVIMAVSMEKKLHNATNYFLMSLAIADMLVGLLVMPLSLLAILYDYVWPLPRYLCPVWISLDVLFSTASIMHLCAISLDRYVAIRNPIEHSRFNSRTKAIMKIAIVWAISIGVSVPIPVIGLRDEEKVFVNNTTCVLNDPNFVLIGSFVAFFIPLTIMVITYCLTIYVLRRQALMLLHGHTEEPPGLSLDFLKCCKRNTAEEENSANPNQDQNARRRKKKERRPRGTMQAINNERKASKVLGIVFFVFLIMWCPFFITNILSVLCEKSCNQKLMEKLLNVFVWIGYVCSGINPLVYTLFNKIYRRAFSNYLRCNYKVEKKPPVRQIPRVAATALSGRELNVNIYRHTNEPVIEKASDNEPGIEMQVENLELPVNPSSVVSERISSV
smiles,measurement,setting,value
Cc1nc2n(c(=O)c1CCN1CCC(=C3c4ccc(Cl)cc4CCc4cccnc43)CC1)CCCC2O (stereo not drawn) [Compound 11c],Selectivity 2 C: % inhibition,5HT2C (h); concentration not given,103%
same,IC50,5HT2C (h); read-out: Selectivity 2 C: IC50,170 nM
same,"remaining at 3 h, 10 μM",[1],88.5%
same,Hepatic triglyceride levels,STZ+HFD mice,reduced
same,plasma AST and ALT levels,STZ+HFD mice,decreased
same,fibrosis stage and total NAFLD activity score,"STZ+HFD mice; 5 or 10 mg/kg daily oral gavage, nine weeks",effectively improved; also recorded: better than obeticholic acid
same,hepatic fibrosis stage,"STZ+HFD mice; 11c 5 or 10 mg/kg, OCA 10 mg/kg",improvement
same,"hepatic steatosis, lobular inflammation, hepatocyte ballooning, and total NAFLD activity score",STZ+HFD mice; NASH CRN scoring,improved
same,expression of genes related to lipogenesis and fibrosis,STZ+HFD mice; dose-dependent manner,reduced
same,AUC0-t (ng equiv./g),[2]; Adrenal gland,7210 ng equiv./g
same,Cmax (ng equiv./g),[2]; Adrenal gland,1510 ng equiv./g
same,Tissue: plasma ratio based on AUC0-t,[2]; Adrenal gland,9.21
same,Tmax,[2]; Adrenal gland,6 h
same,Cmax (ng equiv./g),"[2]; Brain, BQL = below the lower limit of quantitation 148 ng equiv./g",BQL
same,Cmax (ng equiv./g),"[2]; Brain, BQL = below the lower limit of quantitation 148 ng equiv./g, listed as [^14C]-compound 11c",below the lower limit of quantitation
same,AUC0-t (ng equiv./g),[2]; Heart,1800 ng equiv./g
same,Cmax (ng equiv./g),[2]; Heart,369 ng equiv./g
same,Tissue: plasma ratio based on AUC0-t,[2]; Heart,2.30
same,Tmax,[2]; Heart,6 h
same,AUC0-t (ng equiv./g),[2]; Kidney,7860 ng equiv./g
same,Cmax (ng equiv./g),[2]; Kidney,1840 ng equiv./g
same,Tissue: plasma ratio based on AUC0-t,[2]; Kidney,10.0
same,Tmax,[2]; Kidney,6 h
same,AUC0-t (ng equiv./g),[2]; Large Intestine,127000 ng equiv./g
same,Cmax (ng equiv./g),[2]; Large Intestine,9800 ng equiv./g
same,Tissue: plasma ratio based on AUC0-t,[2]; Large Intestine,162
same,Tmax,[2]; Large Intestine,6 h
same,AUC0-t (ng equiv./g),[2]; Liver,15400 ng equiv./g
same,Cmax (ng equiv./g),[2]; Liver,2920 ng equiv./g
same,Tissue: plasma ratio based on AUC0-t,[2]; Liver,19.7
same,Tmax,[2]; Liver,6 h
same,AUC0-t (ng equiv./g),[2]; Lung,4290 ng equiv./g
same,Cmax (ng equiv./g),[2]; Lung,941 ng equiv./g
same,Tissue: plasma ratio based on AUC0-t,[2]; Lung,5.48
same,Tmax,[2]; Lung,6 h
same,AUC0-t (ng equiv./g),[2]; Pancreas,15400 ng equiv./g
same,Cmax (ng equiv./g),[2]; Pancreas,4330 ng equiv./g
same,Tissue: plasma ratio based on AUC0-t,[2]; Pancreas,19.7
same,Tmax,[2]; Pancreas,6 h
same,AUC0-t (ng equiv./g),[2]; Plasma,783 ng equiv./g
same,Cmax (ng equiv./g),[2]; Plasma,225 ng equiv./g
same,Tissue: plasma ratio based on AUC0-t,[2]; Plasma,1.00
same,Tmax,[2]; Plasma,0.5 h
same,AUC0-t (ng equiv./g),[2]; Small Intestine,16600 ng equiv./g
same,Cmax (ng equiv./g),[2]; Small Intestine,45000 ng equiv./g
same,Tissue: plasma ratio based on AUC0-t,[2]; Small Intestine,21.2
same,Tmax,[2]; Small Intestine,0.25 h
same,AUC0-t (ng equiv./g),[2]; Spleen,9520 ng equiv./g
same,Cmax (ng equiv./g),[2]; Spleen,2290 ng equiv./g
same,Tissue: plasma ratio based on AUC0-t,[2]; Spleen,12.2
same,Tmax,[2]; Spleen,6 h
same,AUC0-t (ng equiv./g),[2]; Stomach,5130 ng equiv./g
same,Cmax (ng equiv./g),[2]; Stomach,3240 ng equiv./g
same,Tissue: plasma ratio based on AUC0-t,[2]; Stomach,6.55
same,Tmax,[2]; Stomach,0.25 h
same,AUC0-t (ng equiv./g),[2]; Whole Blood,589 ng equiv./g
same,Cmax (ng equiv./g),[2]; Whole Blood,158 ng equiv./g
same,Tissue: plasma ratio based on AUC0-t,[2]; Whole Blood,0.75
same,Tmax,[2]; Whole Blood,0.5 h
same,IC50,in vitro,> 100000 nM
